Assay results as given in patent US20060019936A1 (priority 2004, published 2006).
“Also recorded” adds a separate entry of the source.

Legend:
[1] = test system: LNCaP cells grown as a xenograft; experiment: LNCaP xenograft in nude mice; format: in vivo; details: seven weekly five-day cycles of 30 mg/kg IP
Protocol: The efficacy of 11β-dichloro was examined toward LNCaP cells grown as a xenograft in nude mice. […] Animals bearing LNCaP xenografts were treated with seven consecutive weekly five-day cycles of 30 mg 11β-dichloro/kg administered via IP injection.
Animal Studies. Four to six week old NIH Swiss nu/nu athymic male mice (25 gm) were obtained from the National Cancer Institute-Frederick Cancer Center (Frederick, Md.). Experiments were carried out under guidelines of the MIT Animal Care Committee. Animals were injected subcutaneously in the right flank with 5×10^6 LNCaP cells suspended in a solution of 50% PBS/50% Matrigel (Collaborative Research, Bedford, Mass.). Therapy commenced when a palpable tumor of approximately 4×4 mm formed (n=5 per treatment group). The 11β-dichloro compound was dissolved in a vehicle composed of cremophor EL, saline and ethanol (43:30:27). Tumor dimensions were measured with vernier calipers. Tumor volumes were calculated using the formula: π/6×larger diameter×(smaller diameter)^2. Statistical analyses were performed using a paired t-test. At the end of the study period, animals were euthanized with CO2. At the time of sacrifice, blood samples were taken from several animals in each group for a complete blood count, along with serum chemistry and liver function analyses. A complete necropsy was also performed, including histopathology on two animals from each group.

[2] = test system: LNCaP, PC3 and DU145 cells; experiment: Differential sensitivity of AR positive and AR negative cells; format: cell-based, human; details: dose of 10 μM
Protocol: AR positive LNCaP cells were 7-fold more sensitive than AR negative PC3 and DU145 cells at a dose of 10 μM. Investigations on similar molecules in which a ligand for the estrogen receptor (ER) was tethered to the same DNA damaging warhead, a similar (but slightly smaller) differential toxicity in favor of killing ER positive cells was observed.

[3] = test system: p70S6K; experiment: Phosphorylation status of p70S6K in LNCaP cells; format: cell-based, human; details: after addition to cells
[4] = test system: c-Myc; experiment: c-Myc protein levels in LNCaP cells; format: cell-based, human
[5] = test system: LNCaP cells; format: cell-based, human; details: LNCaP cells, single agent
[6] = test system: p27 (Kip1); format: cell-based, human; details: LNCaP cells, 10 μM, up to 15 h
[7] = test system: engineered estrogen receptor ligand binding domain-positive HeLa cell line; experiment: ER ligand binding domain-positive HeLa xenograft in nude mice; format: in vivo
[8] = molecular target: T1, AR from LNCaP cells (Homo sapiens, UniProt P10275, T878A); experiment: Competitive binding assay for the AR (relative binding affinity); details: dihydrotestosterone RBA=100
T1 construct: Whole cell extracts prepared from LNCaP and T47D cells were used as sources of the AR and PR respectively; endogenous in cells; host or cells: LNCaP whole cell extract

[9] = test system: human colon adenocarcinoma cell line DLD-1; experiment: DLD-1 xenograft in nude mice; format: in vivo
[10] = test system: LNCaP cells; format: cell-based, human
[11] = Pharmacokinetics / plasma levels in mice
[12] = test system: PARP; format: cell-based, human; details: 10 μM, LNCaP cells
[13] = test system: LNCaP cells; experiment: Cell cycle analysis by flow cytometry; format: cell-based, human; details: LNCaP cells
[14] = test system: p45 Skp2; format: cell-based, human; details: LNCaP cells, 10 μM, up to 15 h
[15] = test system: LNCaP cells; experiment: DNA fragmentation by agarose gel electrophoresis; format: cell-based, human; details: 10 μM, 24 h exposure
[16] = test system: liver DNA; experiment: DNA adduct formation in liver of treated mice; format: in vivo; details: two hours post dosing
Protocol: A set of in vivo studies was performed to assess the stability and biodistribution of the 11β-dichloro compound in mice. These studies required formulation of the compound in a vehicle that would deliver the compound to the tissues following IP or IV administration. The vehicle was Cremophor EL:ethanol:saline (40:30:30 by volume). […] For 2 to 3 hours the compound was present above the […] concentration at which good differential toxicity in favor of killing LNCaP cells in culture was observed. There was also evidence that the intact molecule reached its intended biological target—cellular DNA.

[17] = test system: LNCaP cells; experiment: Annexin V staining and flow cytometry; format: cell-based, human; details: treatment for 15 h
[18] = test system: p21 (WAF1/Cip1); format: cell-based, human; details: LNCaP cells, 10 μM
[19] = test system: 4E-BP1; experiment: Phosphorylation status of 4E-BP1 in LNCaP cells; format: cell-based, human

T1 sequence (P10275 whole entry T878A): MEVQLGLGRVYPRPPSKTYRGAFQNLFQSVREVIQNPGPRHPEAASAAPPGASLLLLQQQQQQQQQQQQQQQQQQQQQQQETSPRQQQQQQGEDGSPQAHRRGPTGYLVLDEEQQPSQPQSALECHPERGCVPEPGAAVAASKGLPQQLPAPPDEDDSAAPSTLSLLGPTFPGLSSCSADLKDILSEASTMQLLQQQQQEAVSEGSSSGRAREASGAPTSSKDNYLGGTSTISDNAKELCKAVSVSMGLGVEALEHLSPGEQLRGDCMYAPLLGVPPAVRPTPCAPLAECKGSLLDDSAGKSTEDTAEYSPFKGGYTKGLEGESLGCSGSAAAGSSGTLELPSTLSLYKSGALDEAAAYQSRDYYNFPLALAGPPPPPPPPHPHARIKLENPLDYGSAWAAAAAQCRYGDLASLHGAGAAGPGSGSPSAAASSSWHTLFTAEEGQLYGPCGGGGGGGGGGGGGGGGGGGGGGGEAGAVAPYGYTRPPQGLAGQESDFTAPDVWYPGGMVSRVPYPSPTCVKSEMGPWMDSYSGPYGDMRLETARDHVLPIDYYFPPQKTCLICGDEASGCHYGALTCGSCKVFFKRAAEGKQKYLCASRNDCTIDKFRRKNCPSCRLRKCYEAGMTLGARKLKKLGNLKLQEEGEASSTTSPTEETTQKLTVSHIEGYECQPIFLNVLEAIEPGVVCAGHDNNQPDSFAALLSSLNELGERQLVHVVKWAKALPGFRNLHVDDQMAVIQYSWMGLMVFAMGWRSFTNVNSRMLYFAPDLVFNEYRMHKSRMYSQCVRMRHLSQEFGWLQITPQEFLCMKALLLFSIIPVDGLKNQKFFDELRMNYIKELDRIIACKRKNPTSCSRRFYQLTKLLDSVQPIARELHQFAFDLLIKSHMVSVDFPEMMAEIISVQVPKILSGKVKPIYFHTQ

Compound: CC12CC(CCCCCCNCCOC(=O)NCCCc3ccc(N(CCCl)CCCl)cc3)C3=C4CCC(=O)C=C4CCC3C1CCC2O (stereo not drawn) [Compound 11β-dichloro, 11β-{N-(2-(N-((N,N-bis-2-chloroethylaminophenyl)propyl)-carbamoyloxy)ethyl)aminohexyl}-17β-hydroxy-estra-Δ4(5),9(10)-3-one]
- tumor growth of LNCaP xenograft [1]: inhibition of tumor growth
- sensitivity of AR positive LNCaP cells relative to AR negative PC3 and DU145 cells [2]: 7 fold
- time to removal of the phosphate on Th389 of p70S6K [3]: ≤ 30 min
- levels of the c-Myc protein [4]: decreased rapidly
- apoptotic response [5]: LNCaP cells undergo apoptosis; also recorded: potent inducer of apoptosis and cell death; also recorded: activates an apoptotic response resulting in destruction of cells
- levels of p27 [6]: increased
- tumor growth of ER-LBD-positive HeLa xenograft [7]: Inhibition of tumor growth
- RBA (Relative Binding Affinity) for the AR [8]: 33
- tumor growth of DLD-1 xenograft [9]: Inhibition of tumor growth
- changes in LNCaP cell shape [10]: dramatic contraction and detachment
- plasma levels ([11]; IP injection of radiolabeled compound, within 30 min): 30 to 40 µM
- intact compound in plasma by HPLC ([11]; at 1 hour, along with several minor unidentified metabolites): lower concentrations
- time to cleavage of PARP [12]: ≤ 9 h
- cell cycle arrest [13]: did not arrest cells in a specific point in the cell cycle
- levels of Skp2 [14]: decreased
- DNA fragmentation [15]: DNA fragmentation occurs
- DNA adducts formed by the intact compound in liver [16]: isolated from liver DNA of treated animals
- concentration showing increased Annexin V staining [17]: > 5 µM
- initial change in levels of p21 [18]: initially decreased
- increase in level of p21 ([18]; up to 15 h): 9 fold
- phosphorylation of 4E-BP1 [19]: rapid disappearance of phosphate groups
